Values joined by “and” are separate entries in the source; they are usually repeats but may differ in a detail not shown here. Equal entries are not always repeated.
Columns and labels:
[1] = target: BCL-2 (binding to BAD peptide) (Homo sapiens, UniProt P10415); test: SPR (Biacore) solution inhibition assay, BCL-2 binding to immobilized BAD peptide; details: biotinylated BAD peptide surface, 56 nM BCL-2, 25° C.; range = high and low IC50 values from multiple experiments; read-out: BCL2_SPR IC50 BAD
Excerpt: (§1) The present method includes utility of a Surface plasmon resonance (SPR)-based biosensor (Biacore™′ GE Healthcare, Uppsala, Sweden) to characterize BCL-2 inhibitors.
(§2) Biacore™ utilizes the phenomenon of surface plasmon resonance (SPR) to detect and measure binding interactions. In a typical Biacore experiment, one of the interacting molecules (ligand) is immobilized on a flexible dextran matrix while the interacting partner (analyte) is allowed to flow across that surface. A binding interaction results in an increase in mass on the sensor surface and a corresponding direct change in the refractive index of the medium in the vicinity of the sensor surface. Changes in refractive index or signal are recorded in resonance units (R.U.) Signal changes due to association and dissociation of complexes are monitored in a non-invasive manner, continuously and in real-time, the results of which are reported in the form of a sensorgram.
(§3) The SPR assay is configured to examine solution inhibition of BCL-2 binding to peptide derivatized sensor surfaces to generate IC50 values as a measure of inhibitor potency.
(§4) Biacore™ A100 (GE Healthcare, Uppsala, Sweden) was used to conduct all experiments reported herein. Sensor surface preparation and all interaction analyses experiments were performed at 25° C. Reagents were purchased from GE Healthcare. Running buffer containing 10 mM Hepes, pH7.4, 150 mM sodium chloride, 1.25 mM Dithiothreitol, 3% Dimethyl sulfoxide and 0.05% polysorbate 20 were utilized throughout all analyses.
(§5) Biotinylated BAK, BAD and NOXA peptides were diluted to 10 nM in running buffer and captured onto a sensor surface pre-derivatized with streptavidin (sensor chip SA) to peptide surface densities in the range 50-100 R.U. Peptide captured surfaces were blocked with 500 μM PEO2-Biotin.
(§6) Interaction analyses were performed by first equilibrating each sample within a 6 point three fold compound dilution series in the range 16 μM to […] with 56 nM BCL-2 for one hour during instrument start-up procedures. Protein compound mixtures were then injected over each peptide surface in parallel for 60 seconds at a flow-rate of 30 μL/min. 56 nM BCL-2 control samples were also prepared and run at regular intervals during the assay. Surface regeneration was performed at the end of each analysis cycle by two 30 second injections of 10 mM Glycine, pH 2.5, 1M Sodium Chloride, 0.05% polysorbate 20. Samples and control compound samples were run in duplicate and controls are also run at regular intervals during the assay to monitor surface and assay performance.
(§7) Data analyses are carried out using Biacore™ A100 evaluation software v1.1 to validate assay quality. Binding level report points were used relative to BCL-2 control samples to calculate % inhibition values for each compound protein mixture. […] The range of data shown in table 1 represents the high and low IC50 values obtained from multiple experiments.

[2] = target: BCL-2 (binding to BAK peptide) (Homo sapiens, UniProt P10415); test: SPR (Biacore) solution inhibition assay, BCL-2 binding to immobilized BAK peptide; details: biotinylated BAK peptide surface, 56 nM BCL-2, 25° C.; range = high and low IC50 values from multiple experiments; read-out: BCL2_SPR IC50 BAK
Excerpt: as §1, §2, §3, §4, §5, §6, §7

Sequence of BCL-2 (binding to BAD peptide) (P10415 whole entry): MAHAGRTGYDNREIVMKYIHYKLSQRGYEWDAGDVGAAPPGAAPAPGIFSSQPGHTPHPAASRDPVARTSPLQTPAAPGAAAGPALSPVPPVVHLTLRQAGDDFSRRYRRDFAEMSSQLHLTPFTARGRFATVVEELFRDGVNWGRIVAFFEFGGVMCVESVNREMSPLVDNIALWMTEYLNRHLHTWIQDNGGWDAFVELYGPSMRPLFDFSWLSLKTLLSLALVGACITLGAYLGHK
Sequence of BCL-2 (binding to BAK peptide) (P10415 whole entry): as above

| Compound | IC50 [1] | IC50 [2] |
| --- | --- | --- |
| CCCCN(CCCC)C(=O)c1cc(C)n(-c2ccc(NC(=O)c3oc(C)nc3C)cc2C(=O)N2Cc3ccccc3C[C@H]2CO)n1 [Example 108] | 1020 to 1120 nM and 691 to 730 nM | 629 to 841 nM and 429 to 430 nM |
| CCCCN(CCCC)C(=O)c1cc(C)n(-c2ccc(NC(=O)c3cccc(-c4ccccc4F)c3)cc2C(=O)N2Cc3ccccc3C[C@H]2CO)n1 [Example 140] | 315 to 343 nM | 275 to 287 nM |
| CCCCN(CCCC)C(=O)c1cc(C)n(-c2ccc(NC(=O)CCC(=O)O)cc2C(=O)N2Cc3ccccc3C[C@H]2CO)n1 [Example 17] | 216 to 250 nM | 153 to 175 nM |
| CCCCN(CCCC)C(=O)c1cc(C)n(-c2ccc(NC(=O)COC3CCCCC3)cc2C(=O)N2Cc3ccccc3C[C@H]2CO)n1 [Example 128] | 270 to 272 nM | 177 to 178 nM |
| CCCCN(CCCC)C(=O)c1cc(C)n(-c2ccc(NC(=O)c3cn(C)nc3C(F)(F)F)cc2C(=O)N2Cc3ccccc3C[C@H]2CO)n1 [Example 155] | 778 to 972 nM | 729 to 935 nM |
| CCCCN(CCCC)C(=O)c1cc(C)n(-c2ccc(NC(=O)Cc3cccc4ccccc34)cc2C(=O)N2Cc3ccccc3C[C@H]2CO)n1 [Example 3, (S)—N,N-dibutyl-1-(2-(3-(hydroxymethyl)-1,2,3,4-tetrahydroisoquinoline-2-carbonyl)-4-(2-(naphthalen-1-yl)acetamido)phenyl)-5-methyl-1H-pyrazole-3-carboxamide] | 48.9 to 58 nM | 44.4 to 52.4 nM |
| CCCCN(CCCC)C(=O)c1cc(C)n(-c2ccc(NC(=O)CNC(=O)c3cccnc3)cc2C(=O)N2Cc3ccccc3C[C@H]2CO)n1 [Example 125] | 88.7 to 103 nM | 63.5 to 77.5 nM |
| CCCCN(CCCC)C(=O)c1cc(C)n(-c2ccc(NC(=O)c3ccc(COC)o3)cc2C(=O)N2Cc3ccccc3C[C@H]2CO)n1 [Example 142] | 1130 to 1300 nM | 935 to 1120 nM |
| CCCCN(CCCC)C(=O)c1cc(C)n(-c2ccc(NC(=O)OCC(C)C)cc2C(=O)N2Cc3ccccc3C[C@H]2CO)n1 [Example 9] | 499 to 606 nM | 394 to 452 nM |
| CCCCN(CCCC)C(=O)c1cc(C)n(-c2ccc(NC(=O)C(C)c3noc4ccccc34)cc2C(=O)N2Cc3ccccc3C[C@H]2CO)n1 (stereo partly drawn) [Example 161] | 3070 to 3910 nM | 1330 to 1560 nM |
| CCCCN(CCCC)C(=O)c1cc(C)n(-c2ccc(NC(C)=O)cc2C(=O)N2Cc3ccccc3C[C@H]2CO)n1 [Example 13] | 776 to 791 nM | 462 to 478 nM |
| CCCCN(CCCC)C(=O)c1cc(C)n(-c2ccc(NC(=O)Cc3ccc(OC)cc3)cc2C(=O)N2Cc3ccccc3C[C@H]2CO)n1 [Example 77] | 65.8 to 71 nM | 55.8 to 64.3 nM |
| CCCCN(CCCC)C(=O)c1cc(C)n(-c2ccc(NC(=O)Cc3noc4ccccc34)cc2C(=O)N2Cc3ccccc3C[C@H]2CO)n1 [Example 121] | 61.2 to 66.9 nM | 54.4 to 58.5 nM |
| CCCCN(CCCC)C(=O)c1cc(C)n(-c2ccc(NC(=O)COc3ccccc3C#N)cc2C(=O)N2Cc3ccccc3C[C@H]2CO)n1 [Example 66] | 142 nM | 106 to 116 nM |
| CCCCN(CCCC)C(=O)c1cc(C)n(-c2ccc(NC(=O)C(C)c3ccc4ccccc4c3)cc2C(=O)N2Cc3ccccc3C[C@H]2CO)n1 (stereo partly drawn) [Example 114] | 61.9 to 73.1 nM and 64.1 to 72.9 nM and 51 to 54.5 nM | 57.2 to 59.9 nM and 58.3 to 62 nM and 52.4 to 53.4 nM |
| CCCCN(CCCC)C(=O)c1cc(C)n(-c2ccc(NC(=O)C3(c4ccccc4)CC3)cc2C(=O)N2Cc3ccccc3C[C@H]2CO)n1 [Example 30] | 252 to 267 nM | 204 to 240 nM |
| CCCCN(CCCC)C(=O)c1cc(C)n(-c2ccc(NC(=O)Cc3cccc(Cl)c3)cc2C(=O)N2Cc3ccccc3C[C@H]2CO)n1 [Example 76] | 59.8 to 59.9 nM | 50.5 to 51.3 nM |
| CCCCN(CCCC)C(=O)c1cc(C)n(-c2ccc(NC(=O)C3Oc4cc5ccccc5cc4O3)cc2C(=O)N2Cc3ccccc3C[C@H]2CO)n1 [Example 67] | 48.9 to 52.7 nM | 43.1 to 46 nM |

| Compound | IC50 [1] | IC50 [2] |
| --- | --- | --- |
| CCCCN(CCCC)C(=O)c1cc(C)n(-c2ccc(NC(=O)Cc3ccc(F)cc3)cc2C(=O)N2Cc3ccccc3C[C@H]2CO)n1 [Example 98] | 302 to 306 nM | 244 to 267 nM |
| CCCCN(CCCC)C(=O)c1cc(C)n(-c2ccc(NC(=O)c3ccc4c(C)c(C)[nH]c4c3)cc2C(=O)N2Cc3ccccc3C[C@H]2CO)n1 [Example 86] | 611 to 628 nM | 432 to 440 nM |
| CCCCN(CCCC)C(=O)c1cc(C)n(-c2ccc(NC(=O)COc3ccc(C(C)C)cc3)cc2C(=O)N2Cc3ccccc3C[C@H]2CO)n1 [Example 18] | 192 to 252 nM | 185 to 265 nM |
| CCCCN(CCCC)C(=O)c1cc(C)n(-c2ccc(NC(=O)CCSc3ccc4ccccc4c3)cc2C(=O)N2Cc3ccccc3C[C@H]2CO)n1 [Example 64] | 138 to 149 nM | 112 to 133 nM |
| CCCCN(CCCC)C(=O)c1cc(C)n(-c2ccc(NC(=O)c3nn(C)c4ncccc34)cc2C(=O)N2Cc3ccccc3C[C@H]2CO)n1 [Example 45] | 689 to 773 nM | 499 to 556 nM |
| CCCCN(CCCC)C(=O)c1cc(C)n(-c2ccc(NC(=O)C(CC#N)c3ccccc3)cc2C(=O)N2Cc3ccccc3C[C@H]2CO)n1 (stereo partly drawn) [Example 135] | 129 to 140 nM | 107 to 111 nM |
| CCCCN(CCCC)C(=O)c1cc(C)n(-c2ccc(NC(=O)c3cc4ccccc4cn3)cc2C(=O)N2Cc3ccccc3C[C@H]2CO)n1 [Example 123] | 293 to 339 nM | 249 to 279 nM |
| CCCCN(CCCC)C(=O)c1cc(C)n(-c2ccc(NC(=O)c3oc4ccccc4c3C)cc2C(=O)N2Cc3ccccc3C[C@H]2CO)n1 [Example 80] | 908 to 1110 nM | 1030 to 1070 nM |
| CCCCN(CCCC)C(=O)c1cc(C)n(-c2ccc(NC(=O)Cc3ccc(OC)c(Br)c3)cc2C(=O)N2Cc3ccccc3C[C@H]2CO)n1 [Example 131] | 27.8 to 36.6 nM | 23.3 to 30.8 nM |
| CCCCN(CCCC)C(=O)c1cc(C)n(-c2ccc(NC(=O)Cc3ccc(OC)c(F)c3)cc2C(=O)N2Cc3ccccc3C[C@H]2CO)n1 [Example 97] | 201 to 210 nM | 146 to 168 nM |
| CCCCN(CCCC)C(=O)c1cc(C)n(-c2ccc(NC(=O)C(C)(C)CC(=O)O)cc2C(=O)N2Cc3ccccc3C[C@H]2CO)n1 [Example 39] | 143 to 166 nM | 106 to 124 nM |
| CCCCN(CCCC)C(=O)c1cc(C)n(-c2ccc(NC(=O)Cc3ccc(Cl)cc3)cc2C(=O)N2Cc3ccccc3C[C@H]2CO)n1 [Example 137] | 83 to 92.7 nM | 69.4 to 74.9 nM |
| CCCCN(CCCC)C(=O)c1cc(C)n(-c2ccc(NC(=O)CCc3ccccc3)cc2C(=O)N2Cc3ccccc3C[C@H]2CO)n1 [Example 8] | 198 to 260 nM | 191 to 287 nM |
| CCCCN(CCCC)C(=O)c1cc(C)n(-c2ccc(NC(=O)c3cnn4cccnc34)cc2C(=O)N2Cc3ccccc3C[C@H]2CO)n1 [Example 107] | 693 to 748 nM | 497 to 520 nM |
| CCCCN(CCCC)C(=O)c1cc(C)n(-c2ccc(NC(=O)Cc3c(F)cccc3Cl)cc2C(=O)N2Cc3ccccc3C[C@H]2CO)n1 [Example 159] | 574 to 596 nM | 409 to 430 nM |
| CCCCN(CCCC)C(=O)c1cc(C)n(-c2ccc(NC(=O)c3ccc(SC(F)(F)F)cc3)cc2C(=O)N2Cc3ccccc3C[C@H]2CO)n1 [Example 154] | 5790 to 6250 nM | 2380 to 4330 nM |
| CCCCN(CCCC)C(=O)c1cc(C)n(-c2ccc(NC(=O)C(CC(=O)N(C)C)c3ccccc3)cc2C(=O)N2Cc3ccccc3C[C@H]2CO)n1 (stereo partly drawn) [Example 99] | 130 to 171 nM | 111 to 144 nM |
| CCCCN(CCCC)C(=O)c1cc(C)n(-c2ccc(NC(=O)CCNC(C)=O)cc2C(=O)N2Cc3ccccc3C[C@H]2CO)n1 [Example 56] | 1090 nM | 722 to 725 nM |

From patent US20140357633A1, “COMPOUNDS FOR INHIBITING THE INTERACTION OF BCL2 WITH BINDING PARTNERS” (NOVARTIS AG, priority 2011, published 2014)
